Laboratory results taken from ChEMBL document CHEMBL1255495, “Experimental conditions that enhance potency of an antibacterial oligo-acyl-lysyl” (2010).
Converted amounts (≈) assume the structure as drawn. The source made the active and inactive calls. No cut-off for these calls is given here.

How the values were obtained:
Staphylococcus aureus [1] = test: Antibacterial activity against methicillin-resistant Staphylococcus aureus isolate 15903 assessed as reduction in bacterial population at 0.01 to 10 uM up to 15 mins by time-kill assay; format: functional
Escherichia coli [2] = test: Antibacterial activity against Escherichia coli O157:H7 ATCC 43894 after 24 hrs by microdilution method in presence of 40 mM MgCl2; format: functional; conditions: O157:H7 ATCC 43894, 24 h
Staphylococcus aureus [3] = test: Antibacterial activity against methicillin-resistant Staphylococcus aureus isolate 15903 after 24 hrs by microdilution method in presence of 85 mM NaCl; format: functional; conditions: isolate 15903, 24 h
Listeria monocytogenes [4] = test: Antibacterial activity against Listeria monocytogenes ATCC 19115 at pH 7 after 24 hrs by microdilution method; format: functional; conditions: ATCC 19115, 24 h
Listeria monocytogenes [5] = test: Antibacterial against Listeria monocytogenes ATCC 19115 at pH 8.5 after 24 hrs at 48 degC by microdilution method in presence of 85 mM NaCl; format: functional; conditions: ATCC 19115, 24 h
Listeria monocytogenes [6] = test: Ratio of MIC for Listeria monocytogenes ATCC 19115 in presence of 85 mM NaCl to MIC for Listeria monocytogenes ATCC 19115 at pH 8.5 after 24 hrs at 48 degC in presence of 85 mM NaCl; format: functional
Listeria monocytogenes [7] = test: Antibacterial activity against Listeria monocytogenes ATCC 19115 assessed as reduction in bacterial population at 0.01 to 10 uM up to 15 mins by time-kill assay; format: functional
Escherichia coli [8] = test: Antibacterial activity against Escherichia coli O157:H7 ATCC 43894 after 24 hrs by microdilution method in presence of 20 mM MgCl2; format: functional; conditions: O157:H7 ATCC 43894, 24 h
Listeria monocytogenes [9] = test: Antibacterial activity against Listeria monocytogenes ATCC 19115 after 24 hrs at 48 degC by microdilution method; format: functional; conditions: ATCC 19115, 24 h
Lipid bilayer = test: Binding affinity to phospholipid membrane model at pH 8.5 by surface plasmon resonance in presence of 140 mM NaCl
Escherichia coli [10] = test: Antibacterial activity against Escherichia coli O157:H7 ATCC 43894 after 24 hrs by microdilution method in presence of 170 mM NaCl; format: functional; conditions: O157:H7 ATCC 43894, 24 h
Escherichia coli [11] = test: Antibacterial activity against Escherichia coli O157:H7 ATCC 43894 after 24 hrs at 25 degC by microdilution method; format: functional; conditions: O157:H7 ATCC 43894, 24 h
Listeria monocytogenes [12] = test: Antibacterial activity against Listeria monocytogenes ATCC 19115 after 24 hrs at 25 degC by microdilution method; format: functional; conditions: ATCC 19115, 24 h
Staphylococcus aureus [13] = test: Antibacterial activity against methicillin-resistant Staphylococcus aureus isolate 15903 after 24 hrs at 37 degC by microdilution method; format: functional; conditions: isolate 15903, 24 h
Escherichia coli [14] = test: Antibacterial activity against Escherichia coli O157:H7 ATCC 43894 after 24 hrs by microdilution method in presence of 80 mM MgCl2; format: functional; conditions: O157:H7 ATCC 43894, 24 h
Staphylococcus aureus [15] = test: Antibacterial activity against methicillin-resistant Staphylococcus aureus isolate 15903 after 24 hrs by microdilution method in presence of 1030 mM NaCl; format: functional; conditions: isolate 15903, 24 h
Staphylococcus aureus [16] = test: Antibacterial activity against methicillin-resistant Staphylococcus aureus isolate 15903 at pH 5.5 after 24 hrs by microdilution method; format: functional; conditions: isolate 15903, 24 h
Escherichia coli [17] = test: Antibacterial activity against Escherichia coli O157:H7 ATCC 43894 at pH 8.5 after 24 hrs by microdilution method; format: functional; conditions: O157:H7 ATCC 43894, 24 h
Escherichia coli [18] = test: Antibacterial activity against Escherichia coli O157:H7 ATCC 43894 after 24 hrs by microdilution method in presence of 260 mM NaCl; format: functional; conditions: O157:H7 ATCC 43894, 24 h
Escherichia coli [19] = test: Antibacterial activity against Escherichia coli O157:H7 ATCC 43894 at pH 5.5 after 24 hrs by microdilution method; format: functional; conditions: O157:H7 ATCC 43894, 24 h
Listeria monocytogenes [20] = test: Antibacterial activity against Listeria monocytogenes ATCC 19115 after 24 hrs by microdilution method in presence of 260 mM NaCl; format: functional; conditions: ATCC 19115, 24 h
Escherichia coli [21] = test: Antibacterial activity against Escherichia coli O157:H7 ATCC 43894 at pH 3.5 after 24 hrs by microdilution method; format: functional; conditions: O157:H7 ATCC 43894, 24 h
Staphylococcus aureus [22] = test: Antibacterial activity against Staphylococcus aureus ATCC 25923 at pH 7 after 24 hrs by microdilution method; format: functional; conditions: ATCC 25923, 24 h
Staphylococcus aureus [23] = test: Antibacterial activity against methicillin-resistant Staphylococcus aureus isolate 15903 at pH 8.5 after 24 hrs by microdilution method; format: functional; conditions: isolate 15903, 24 h
Staphylococcus aureus [24] = test: Antibacterial activity against methicillin-resistant Staphylococcus aureus ATCC 43300 at pH 7 after 24 hrs by microdilution method; format: functional; conditions: ATCC 43300, 24 h
Escherichia coli [25] = test: Antibacterial activity against Escherichia coli O157:H7 ATCC 43894 after 24 hrs by microdilution method in presence of 515 mM NaCl; format: functional; conditions: O157:H7 ATCC 43894, 24 h
Listeria monocytogenes [26] = test: Antibacterial activity against Listeria monocytogenes ATCC 19115 after 24 hrs by microdilution method in presence of 85 mM NaCl; format: functional; conditions: ATCC 19115, 24 h
Escherichia coli [27] = test: Antibacterial activity against Escherichia coli O157:H7 ATCC 43894 after 24 hrs by microdilution method in presence of 85 mM NaCl; format: functional; conditions: O157:H7 ATCC 43894, 24 h
Listeria monocytogenes [28] = test: Antibacterial activity against Listeria monocytogenes ATCC 19115 after 72 hrs at 4 degC by microdilution method; format: functional; conditions: ATCC 19115, 72 h

For `CCCCCCCCCCCC(=O)N[C@@H](CCCCN)C(=O)NCCCCCCCC(=O)N[C@@H](CCCCN)C(=O)NCCCCCCCC(=O)N[C@@H](CCCCN)C(=O)NCCCCCCCC(=O)N[C@@H](CCCCN)C(=O)NCCCCCCCC(=O)N[C@@H](CCCCN)C(=O)NCCCCCCCC(=O)N[C@@H](CCCCN)C(=O)NCCCCCCCC(=O)N[C@@H](CCCCN)C(=O)NCCCCCCCC(=O)N[C@@H](CCCCN)C(N)=O`, the “inhibition (INH)” value (Staphylococcus aureus [1]) was 99%, the MIC (Escherichia coli [2]) was 6.3 µM and the MIC (Staphylococcus aureus [3]) was 12.5 µM. The MIC (Listeria monocytogenes [4]) was 1.6 µM (≈ 3.54 µg/mL), the MIC (Listeria monocytogenes [5]) was 0.05 µM and the Ratio (Listeria monocytogenes [6]) was 32. The “inhibition (INH)” value (Listeria monocytogenes [7]) was 99%, the MIC (Escherichia coli [8]) was 3.1 µM and the MIC (Listeria monocytogenes [9]) was 1.6 µM (≈ 3.54 µg/mL). For the same compound, the Activity (Lipid bilayer) was “Active”, the MIC (Escherichia coli [10]) was 3.1 µM and the MIC (Escherichia coli [11]) was 3.1 µM (≈ 6.86 µg/mL). For the same compound, the MIC (Listeria monocytogenes [12]) was 3.1 µM (≈ 6.86 µg/mL), the MIC (Staphylococcus aureus [13]) was 12.5 µM (≈ 27.7 µg/mL) and the MIC (Escherichia coli [14]) was 12.5 µM. The MIC (Staphylococcus aureus [15]) was over 50 µM, the MIC (Staphylococcus aureus [16]) was over 50 µM and the MIC (Escherichia coli [17]) was 1.6 µM (≈ 3.54 µg/mL). It also gave an MIC (Escherichia coli [18]) of 6.3 µM, an MIC (Escherichia coli [19]) of 3.1 µM (≈ 6.86 µg/mL) and an MIC (Listeria monocytogenes [20]) of 3.1 µM. The MIC (Escherichia coli [21]) was over 50 µM, the MIC (Staphylococcus aureus [22]) was 25 µM (≈ 55.3 µg/mL) and the MIC (Staphylococcus aureus [23]) was 1.6 µM (≈ 3.54 µg/mL). The MIC (Staphylococcus aureus [24]) was 50 µM (≈ 111 µg/mL), the MIC (Escherichia coli [25]) was 6.3 µM and the MIC (Listeria monocytogenes [26]) was 1.6 µM. The MIC (Escherichia coli [27]) was 3.1 µM and the MIC (Listeria monocytogenes [28]) was 3.1 µM (≈ 6.86 µg/mL).
